Experiments:
Assay type in all cases: cell-based
GP2D (KRAS G12D) = experiment: Cell proliferation assay (CellTiter-Glo, 72 hours), GP2D; conditions: GP2d, 72 h, 384-well, CellTiter-Glo 2.0
Experimental: (§1) Two thousand KRAS mutant cells per well were seeded in 384-well white plate and then treated with indicated compounds for 72 hours at 37° C. and 5% CO2. Cell proliferation was measured using CellTiter-Glo 2.0 luciferase-based ATP detection assay (Promega, Madison, WI) following the manufacturer's protocol. IC50 values were determined using Prism software (GraphPad Software, San Diego, CA).

SW620 (KRAS G12V) = experiment: Cell proliferation assay (CellTiter-Glo, 72 hours), SW620; conditions: Homo sapiens, SW-620, 72 h, 384-well, CellTiter-Glo 2.0
Experimental: as §1

AGS (G12D) = experiment: Cell proliferation assay (CellTiter-Glo, 72 hours), AGS; conditions: 72 h, 384-well, CellTiter-Glo 2.0
Experimental: as §1

SMILES | IC50 (SW620 (KRAS G12V)) | IC50 (AGS (G12D)) | IC50 (GP2D (KRAS G12D))
C#Cc1c(F)ccc2cc(O)cc(-c3nc4c5c(nc(OC[C@@]67CCCN6C[C@H](F)C7)nc5c3F)N3C[C@@H](O)CC[C@@H]3CO4)c12 [Example 94, (8aR,11S)-5-(8-ethynyl-7-fluoro-3-hydroxynaphthalen-1-yl)-4-fluoro-2-{[(2R,7aS)-2-fluorotetrahydro-1H-pyrrolizin-7a(5H)-yl]methoxy}-8,8a,9,10,11,12-hexahydro-7-oxa-1,3,6,12a-tetraazabenzo[4,5]cyclohepta[1,2,3-de]naphthalen-11-ol] | > 3000 nM | > 3000 nM | 1100 nM
C#Cc1c(F)ccc2cc(O)cc(-c3nc4c5c(nc(OC[C@@]67CCCN6C[C@H](F)C7)nc5c3F)NC3(CC3)CO4)c12 [Example 95, 5-ethynyl-6-fluoro-4-(4′-fluoro-2′-{[(2R,7aS)-2-fluorotetrahydro-1H-pyrrolizin-7a(5H)-yl]methoxy}-8′H,10′H-spiro[cyclopropane-1,9′-[7]oxa[1,3,6,10]tetraazacyclohepta[1,2,3-de]naphthalen]-5′-yl)naphthalen-2-ol] | > 3000 nM | > 3000 nM | 993 nM
C#Cc1c(F)ccc2cc(O)cc(-c3nc4c5c(nc(OC[C@@]67CCCN6C[C@H](O)C7)nc5c3F)N3CCCC[C@H]3CO4)c12 [Example 97, (2R,7aS)-7a-({[(8aS)-5-(8-ethynyl-7-fluoro-3-hydroxynaphthalen-1-yl)-4-fluoro-8,8a,9,10,11,12-hexahydro-7-oxa-1,3,6,12a-tetraazabenzo[4,5]cyclohepta[1,2,3-de]naphthalen-2-yl]oxy}methyl)hexahydro-1H-pyrrolizin-2-ol] | 1180 nM | 385 nM | 916 nM
CCc1c(F)ccc2cc(O)cc(-c3nc4c5c(nc(OC[C@@]67CCCN6C[C@H](F)C7)nc5c3F)N[C@H](CO)CO4)c12 [Example 100, 5-ethyl-6-fluoro-4-[(9R)-4-fluoro-2-{[(2R,7aS)-2-fluorotetrahydro-1H-pyrrolizin-7a(5H)-yl]methoxy}-9-(hydroxymethyl)-9,10-dihydro-8H-7-oxa-1,3,6,10-tetraazacyclohepta[1,2,3-de]naphthalen-5-yl]naphthalen-2-ol] | > 3000 nM | > 3000 nM | > 3000 nM

Now from value to compound, other results behind:

IC50 (SW620 (KRAS G12V)) | IC50 (AGS (G12D)) | SMILES | IC50 (GP2D (KRAS G12D))
> 3000 nM | > 3000 nM | C#Cc1c(F)ccc2cc(O)cc(-c3nc4c5c(nc(OC[C@@]67CCCN6C[C@@H](O)C7)nc5c3F)N3CCCC[C@H]3CO4)c12 [Example 101, (2S,7aS)-7a-({[(8aS)-5-(8-ethynyl-7-fluoro-3-hydroxynaphthalen-1-yl)-4-fluoro-8,8a,9,10,11,12-hexahydro-7-oxa-1,3,6,12a-tetraazabenzo[4,5]cyclohepta[1,2,3-de]naphthalen-2-yl]oxy}methyl)hexahydro-1H-pyrrolizin-2-ol] | 880 nM
> 3000 nM | > 3000 nM | C#Cc1c(F)ccc2cc(O)cc(-c3nc4c5c(nc(OC[C@@]67CCCN6C[C@H](F)C7)nc5c3F)N[C@H]3CCC[C@H]3O4)c12 [Example 102, 5-ethynyl-6-fluoro-4-[(7aR,10aS)-4-fluoro-2-{[(2R,7aS)-2-fluorotetrahydro-1H-pyrrolizin-7a(5H)-yl]methoxy}-7a,8,9,10,10a,11-hexahydro-7-oxa-1,3,6,11-tetraazanaphtho[1,8-fg]azulen-5-yl]naphthalen-2-ol] | > 3000 nM
86.2 nM | 81 nM | C#Cc1c(F)ccc2cc(O)cc(-c3nc4c5c(nc(OC[C@@]67CCCN6C[C@H](F)C7)nc5c3F)N3CC(F)CC[C@H]3CO4)c12 (stereo partly drawn) [Example 105, 4-[(4R,7S)-4,13-difluoro-16-[[(2R,8S)-2-fluoro-1,2,3,5,6,7-hexahydropyrrolizin-8-yl]methoxy]-9-oxa-2,11,15,17-tetrazatetracyclo[8.7.1.0^2,7.0^14,18]octadeca-1 (17),10 (18),11,13,15-pentaen-12-yl]-5-ethynyl-6-fluoro-naphthalen-2-ol] | 21.6 nM
